Experimental data from patent US20150253306A1 (priority 2012, published 2015).

System: intact platelets
Assay: mitochondrial respiration of intact platelets (titration protocol)
Format: cell-based, human
Procedure: Data was recorded with DatLab software 4.3.
Integrated respiration of intact cells with endogenous mitochondrial substrates was evaluated with two different titration protocols. Platelets were suspended in either PBS-glucose or the control subject's own plasma. […] To evaluate the contribution of respiration independent of ADP phosphorylation, oligomycin (1 μg/ml, ATP-synthase inhibitor) was sequentially added inducing LEAK respiration state (also known as oligomycin-induced state 4 respiration). […] Rotenone (2 μM, complex I [CI] inhibitor) and antimycin-A (1 μg/ml, complex III [CIII] inhibitor) were then sequentially added to inhibit the ETS providing the residual oxygen consumption which was subtracted from the different respiratory parameters in further analyses.
In order to evaluate the influence on maximal respiratory capacity by the inhibition of ATP-synthase, a second experimental protocol was performed, where ETS capacity was evaluated by direct titration of FCCP after stabilization of routine respiration, followed by the same inhibitors as above. Control ratios were derived from maximal, FCCP-stimulated, respiration divided by LEAK respiration (ETS/LEAK) and routine respiration (ETS/routine).

For `C=C(C)[C@H]1Cc2c(ccc3c2O[C@@H]2COc4cc(OC)c(OC)cc4[C@@H]2C3=O)O1` [rotenone], which inhibition at 2 µM (Homo sapiens, Platelet, read-out: inhibition of respiration) is on record?
The inhibition at 2 µM was ~99%.

Which “further inhibition of respiration after rotenone” value (intact platelets, antimycin-A 1 μg/ml added after rotenone 2 μM) does the source give for antimycin-A here?
The value was “no further inhibition”.
